Measured values taken from patent US4483853A, “Amino acid isomers, their production and their medicinal use” (priority 1981, dated 1984).
Like-named read-outs stand apart in the source and are kept apart here.

Legend:
sound-induced seizures = assay: Sound-induced (audiogenic) seizures in DBA/2 mice, i.c.v. or i.p. (WR, clonus, tonus); assay type: in vivo; conditions: for order of potency: congeneric series of phosphonic acid analogues, i.c.v. DBA/2 mice; for Minimum dose to suppress WR / ED50 Tonus / ED50 WR / ED50 Clonus / activity (in words): i.c.v., DBA/2 mice; for Minimum dose to suppress WR: 45 minutes before sound, P < .01; for ED50 WR: wild running phase
Protocol: (§1) Dicarboxylic amino acids and their thio-analogues were tested as potential anticonvulsants in animal models of epilepsy by being administered intracerebroventricularly (i.c.v.) or intraperitoneally (i.p.) in mice (either DBA/2 mice showing sound-induced seizures, or Swiss S mice given a just-convulsant dose of pentylenetetrazol, s.c.) or intravenously in baboons, Papio papio, with photosensitive epilepsy. A close correlation was found between the ability of antagonists to block excitation due to NMDA (N-methyl-D-aspartic acid) and suppression of sound-induced seizures following i.c.v. injection in DBA/2 mice. […] Following systemic administration in mice 2-amino-7-phosphonoheptanoic acid was active against sound-induced seizures (0.1-0.33 mmoles/kg, i.p.) and against pentylenetetrazol seizures (1.2 mmoles/kg). It is also active against photosensitive epileptic responses in baboons (1.0 mmoles/kg, i.v.)
(i) Anticonvulsant activity of excitatory amino acid antagonists in DBA/2 mice
DBA/2 mice were chosen as being an inbred strain in which, within a critical age range, a fixed sequence of seizure response can be induced by a loud sound. Groups of DBA/2 mice (N=6 to 10), 21 to 28 days old, were injected intracerebroventricularly under light ether anesthesia with 10 μl of drug solution or phosphate buffer alone (pH 7.3). Auditory stimulation (electric bell generating 109 dB at mouse level) was applied 45 minutes later for 60 seconds or until tonic extension was observed and the incidence and timing of the phases of the seizure response were recorded. These included an initial wild running phase (WR) followed by myocolonus, tonic flexion, and extension and, frequently, respiratory arrest. Seizure response was scored as described in Eur. J. Pharmacol 59, 75 (1979), and comparisons between groups of control and drug-treated animals were made by using Fisher's exact probability test. Successive doses, with a geometric factor of 3, were tested until an adequate log dose-response curve (three to six points) could be constructed for each antagonist for each phase of the seizure response, and ED50 values were graphically determined. A rank order of anticonvulsant potency was allocated to each antagonist for comparison with iontophoretic data; O denoting no activity and X to XXXX denoting increasingly marked activity.
(§2) Studies of audiogenic seizures were performed as described in Example(i). For intraperitoneal administration the antagonist was injected with 0.1 ml of saline 45 minutes before testing. Antagonism of pentylenetetrazol (PTZ: threshold) seizures was studied in random-bred Swiss mice (Tuck T/O strain: 28 days old; 20 to 23 g). Mice in groups (N=10) received pentylenetetrazol (85 mg/kg: 0.85 percent solution in 0.9 percent sodium chloride) subcutaneously in a loose fold of skin on the back of the neck 45 minutes after intracerenroventricular or intraperitoneal administration of drug or vehicle. During the 30-minute observation period sustained rhythmic clonic jerking with tonic spasms occured in 90 to 100 percent of control mice. The incidence and timing of clonic episodes was recorded with absence of sustained clonic jerking (no episode of 5 seconds duration or longer) being defined as protection. The ED50 values and 95 percent fiducial limits were estimated by using the method of moving averages (by the method described in Biometrics 8, 249 (1952) with data from four successive dose levels.

[1] = test system: pentylenetetrazol seizures; assay: Pentylenetetrazol-induced seizures in Swiss S mice; assay type: in vivo
Protocol: as §1, §2

[2] = test system: photosensitive epileptic responses; assay: Photosensitive epilepsy in baboons; assay type: in vivo, Papio papio; conditions: i.v.
Protocol: as §1

[3] = test system: ibotenic acid-excited receptors; assay: Block of ibotenic acid-excited receptors; conditions: CNS receptors
[4] = test system: Kainic acid-excited receptors; assay: Block of kainic acid-excited receptors; conditions: CNS receptors
NMDA = conditions: cited from earlier work
[5] = test system: kainate-induced excitation; conditions: cited from earlier work
quisqualate receptor = conditions: cited from earlier work

Row | SMILES | order of potency (sound-induced seizures) | Minimum dose to suppress WR (sound-induced seizures) | ED50 Tonus (sound-induced seizures) | ED50 WR (sound-induced seizures) | ED50 Clonus (sound-induced seizures) | also measured
1 | NC(CCCCCP(=O)(O)O)C(=O)O (racemic) [(±)-2-Amino-7-phosphonoheptanoic acid, (±)2-amino-7-phosphonoheptanoic acid] | 2-amino-7-phosphonoheptanoate>2-amino-5-phosphonopentanoic acid>2-amino-6-phosphonohexanoic acid>2-amino-4-phosphonobutyric acid | 0.01 μ mole | 0.0008 μ mole | 0.004 μ mole | – | minimal effective dose (sound-induced seizures; Mus musculus, ip, 0.75 h, read-out: Minimum dose to suppress WR): 330 µmol/kg; ED50 (sound-induced seizures; Mus musculus, ip, read-out: ED50 Clonus): 40 µmol/kg; ED50 (sound-induced seizures; Mus musculus, ip, read-out: ED50 Tonus): 40 µmol/kg; ED50 (sound-induced seizures; Mus musculus, ip, read-out: ED50 WR): 180 µmol/kg; active against sound-induced seizures, dose (sound-induced seizures; mice, i.p.): 0.1 to 0.33 mmol/kg; ED50 ([1]; Mus musculus, ip, intraperitoneal, pentylenetetrazol 85 mg/kg s.c., read-out: ED50 V PTZ (95% fiducial limits)): 1180 µmol/kg; ED50 V PTZ (95% fiducial limits) ([1]; intracerebroventricular, pentylenetetrazol 85 mg/kg s.c.): 0.64 (0.19-2.13) μ mole; active against pentylenetetrazol seizures, dose ([1]; mice, systemic administration): 1.2 mmol/kg; active against photosensitive epileptic responses, dose [2]: 1.0 mmol/kg
2 | N[C@H](CCCCCP(=O)(O)O)C(=O)O [(-)-2-Amino-7-phosphonoheptanoic acid] | – | 0.0033 μ mole | 0.0008 μ mole | 0.0022 μ mole | 0.0008 μ mole | blocking of ibotenic acid-excited receptors [3]: blocker of ibotenic acid-excited receptors; blocking of Kainic acid-excited receptors [4]: not a blocker of Kainic acid-excited receptors
3 | NC(CCCP(=O)(O)O)C(=O)O (racemic) [(±)-2-Amino-5-phosphonopentanoic acid] | 2-amino-7-phosphonoheptanoate>2-amino-5-phosphonopentanoic acid>2-amino-6-phosphonohexanoic acid>2-amino-4-phosphonobutyric acid | 0.1 μ mole | 0.025 μ mole | 0.046 μ mole | 0.022 μ mole | –
4 | NC(CCCCCP(=O)(O)O)C(=O)O (single isomer, unassigned; (+)) [(+)-2-Amino-7-phosphonoheptanoic acid] | – | 0.033 μ mole | 0.0018 μ mole | 0.0135 μ mole | 0.0018 μ mole | –
5 | NC(CCCCP(=O)(O)O)C(=O)O (racemic) [(±)-2-Amino-6-phosphonohexanoic acid] | 2-amino-7-phosphonoheptanoate>2-amino-5-phosphonopentanoic acid>2-amino-6-phosphonohexanoic acid>2-amino-4-phosphonobutyric acid | 0.25 μ mole | 0.15 μ mole | 0.17 μ mole | 0.14 μ mole | –
6 | N[C@H](CCC(=O)NCC(=O)O)C(=O)O [γ-D-Glutamylglycine, reference compound] | – | 0.1 μ mole | 0.054 μ mole | 0.058 μ mole | 0.046 μ mole | activity (in words) (sound-induced seizures): equipotent with 2-amino-5-phosphonoheptanoic acid; antagonism of NMDA-induced excitation (NMDA): antagonist of both kainate and NMDA-induced excitation; antagonism of kainate-induced excitation [5]: antagonist of both kainate and NMDA-induced excitation
7 | CCOC(=O)CC[C@H](N)C(=O)OCC [Glutamic acid diethylester, reference compound] | – | – | – | – | – | activity (in words) (sound-induced seizures): inactive; quisqualate receptor antagonism (quisqualate receptor): quisqualate receptor antagonist
8 | NC(CCP(=O)(O)O)C(=O)O (racemic) [(±)-2-Amino-4-phosphonobutyric acid, reference compound] | 2-amino-7-phosphonoheptanoate>2-amino-5-phosphonopentanoic acid>2-amino-6-phosphonohexanoic acid>2-amino-4-phosphonobutyric acid | – | – | – | – | –
